{"source": "patent US8802597B2", "about": "“Herbicidal pyrimidines” (E I du Pont de Nemours and Company, priority 2003, dated 2014)", "type_in_all_cases": "in vivo", "key": {"[1]": {"system": "Surinam grass (Brachiaria decumbens)", "experiment": "Test B pre/postemergence", "settings": "for pest or weed control at 62 g/ha: Urochloa decumbens, 62 g ai/ha", "in_short": "(§1)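 Test chemicals in a non-phytotoxic solvent mixture with surfactant were applied preemergence to planted seeds and postemergence to plants 2 to 18 cm tall (1- to 4-leaf stage). After 13 to 15 days in a greenhouse, injury was visually rated against untreated controls on a 0 to 100 scale.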"}, "[2]": {"system": "barnyardgrass (Echinochloa crus-galli)", "experiment": "Test B pre/postemergence", "settings": "scale 0 to 100 (0 no effect, 100 complete control); for pest or weed control at 62 g/ha: Echinochloa crus-galli, 62 g ai/ha", "in_short": "as §1"}, "[3]": {"system": "cocklebur (Xanthium strumarium)", "experiment": "Test B pre/postemergence", "settings": "for pest or weed control at 62 g/ha: Xanthium strumarium, 62 g ai/ha", "in_short": "as §1"}, "corn (Zea mays)": {"system": "corn (Zea mays)", "experiment": "Test B pre/postemergence", "in_short": "as §1"}, "[4]": {"system": "crabgrass (Digitaria sanguinalis)", "experiment": "Test B pre/postemergence", "settings": "for pest or weed control at 62 g/ha: Digitaria sanguinalis, 62 g ai/ha", "in_short": "as §1"}, "[5]": {"system": "giant foxtail (Setaria faberii)", "experiment": "Test B pre/postemergence", "settings": "for pest or weed control at 62 g/ha: Setaria faberi, 62 g ai/ha", "in_short": "as §1"}, "[6]": {"system": "lambsquarters (Chenopodium album)", "experiment": "Test B pre/postemergence", "settings": "for pest or weed control at 62 g/ha: Chenopodium album, 62 g ai/ha", "in_short": "as §1"}, "[7]": {"system": "morningglory (Ipomoea coccinea)", "experiment": "Test B pre/postemergence", "settings": "for pest or weed control at 62 g/ha: Ipomoea, 62 g ai/ha", "in_short": "as §1"}, "[8]": {"system": "pigweed (Amaranthus retroflexus)", "experiment": "Test B pre/postemergence", "settings": "for pest or weed control at 62 g/ha: Amaranthus retroflexus, 62 g ai/ha", "in_short": "as §1"}, "[9]": {"system": "velvetleaf (Abutilon theophrasti)", "experiment": "Test B pre/postemergence", "settings": "for pest or weed control at 62 g/ha: Abutilon theophrasti, 62 g ai/ha", "in_short": "as §1"}, "[10]": {"system": "wheat (Triticum aestivum)", "experiment": "Test B pre/postemergence", "settings": "scale 0 to 100 (0 no effect, 100 complete control); for plant injury at 62 g/ha: Triticum aestivum, 62 g ai/ha", "in_short": "as §1"}, "[11]": {"system": "blackgrass (Alopecurus myosuroides)", "experiment": "Test B postemergence", "settings": "scale 0 to 100 (0 no effect, 100 complete control)", "in_short": "as §1"}, "wild oat (Avena fatua)": {"system": "wild oat (Avena fatua)", "experiment": "Test B postemergence", "settings": "scale 0 to 100 (0 no effect, 100 complete control)", "in_short": "as §1"}, "[12]": {"system": "barnyardgrass (Echinochloa crus-galli)", "experiment": "Test B flooded paddy test", "settings": "Echinochloa crus-galli, Flood, scale 0 to 100, read-out: Plant response rating, Barnyardgrass", "in_short": "(§2)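 Plants were grown to the 2-leaf stage before treatment, then kept in a greenhouse for 13 to 15 days. Injury was rated visually against untreated controls on a 0 to 100 scale, where 0 is no effect and 100 is complete control.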"}, "[13]": {"system": "duck salad (Heteranthera limosa)", "experiment": "Test B flooded paddy test", "settings": "Heteranthera limosa, Flood, scale 0 to 100, read-out: Plant response rating, Ducksalad", "in_short": "as §2"}, "rice (Oryza sativa)": {"system": "rice (Oryza sativa)", "experiment": "Test B flooded paddy test", "settings": "Oryza sativa, Flood, scale 0 to 100, read-out: Plant response rating, Rice", "in_short": "as §2"}, "[14]": {"system": "umbrella sedge (Cyperus difformis)", "experiment": "Test B flooded paddy test", "settings": "Cyperus difformis, Flood, scale 0 to 100, read-out: Plant response rating, Sedge, Umbrella", "in_short": "as §2"}, "[15]": {"settings": "Postemergence, 125 g ai/ha, scale 0 to 100 (0 no effect, 100 complete control)"}, "[16]": {"settings": "Preemergence, 125 g ai/ha, scale 0 to 100 (0 no effect, 100 complete control)"}}, "note": "Read-outs that look alike come from different tables or passages of the source."}
{"molecule": "Nc1nc(C2CC2)nc(C(=O)[O-])c1Br.[Na+]", "note": "[Compound 113, 6-amino-5-bromo-2-cyclopropyl-4-pyrimidinecarboxylic acid monosodium salt]", "values": [{"measurement": "Surinam Grass plant response rating", "setting": "[1]; [15]", "value": 80}, {"measurement": "Plant response rating, Surinam Grass", "setting": "[1]; [16]", "value": 60}, {"measurement": "pest or weed control at 62 g/ha", "setting": "[1]; post-emergence, Postemergence, scale 0 to 100 (0 no effect, 100 complete control), read-out: Surinam Grass plant response rating", "value": 30, "unit": "%"}, {"measurement": "pest or weed control at 62 g/ha", "setting": "[1]; pre-emergence, Preemergence, scale 0 to 100, 0 no effect, 100 complete control, read-out: Plant response rating, Surinam Grass", "value": 20, "unit": "%"}, {"measurement": "pest or weed control at 62 g/ha", "setting": "[2]; post-emergence, Postemergence, read-out: Barnyardgrass plant response rating", "value": 50, "unit": "%"}, {"measurement": "pest or weed control at 62 g/ha", "setting": "[2]; pre-emergence, Preemergence, read-out: Plant response rating, Barnyardgrass", "value": 0, "unit": "%"}, {"measurement": "Barnyardgrass plant response rating", "setting": "[2]; Postemergence, 125 g ai/ha", "value": 80}, {"measurement": "Plant response rating, Barnyardgrass", "setting": "[2]; Preemergence, 125 g ai/ha", "value": 20}, {"measurement": "Cocklebur plant response rating", "setting": "[3]; [15]", "value": 90}, {"measurement": "Plant response rating, Cocklebur", "setting": "[3]; [16]", "value": 80}, {"measurement": "pest or weed control at 62 g/ha", "setting": "[3]; post-emergence, Postemergence, scale 0 to 100 (0 no effect, 100 complete control), read-out: Cocklebur plant response rating", "value": 90, "unit": "%"}, {"measurement": "pest or weed control at 62 g/ha", "setting": "[3]; pre-emergence, Preemergence, scale 0 to 100, 0 no effect, 100 complete control, read-out: Plant response rating, Cocklebur", "value": 70, "unit": "%"}, {"measurement": "Corn plant response rating", "setting": "corn (Zea mays); [15]", "value": 40}, {"measurement": "Plant response rating, Corn", "setting": "corn (Zea mays); [16]", "value": 20}, {"measurement": "plant injury at 62 g/ha", "setting": "corn (Zea mays); Zea mays, post-emergence, Postemergence, 62 g ai/ha, scale 0 to 100 (0 no effect, 100 complete control), read-out: Corn plant response rating", "value": 10, "unit": "%"}, {"measurement": "Corn plant response rating (crop injury, 0 = no effect, 100 = complete kill) at 62 g/ha", "setting": "corn (Zea mays); Zea mays, pre-emergence, Preemergence, 62 g ai/ha, scale 0 to 100, 0 no effect, 100 complete control", "value": 0, "unit": "%"}, {"measurement": "pest or weed control at 62 g/ha", "setting": "[4]; post-emergence, Postemergence, scale 0 to 100 (0 no effect, 100 complete control), read-out: Crabgrass plant response rating", "value": 20, "unit": "%"}, {"measurement": "pest or weed control at 62 g/ha", "setting": "[4]; pre-emergence, Preemergence, scale 0 to 100, 0 no effect, 100 complete control, read-out: Plant response rating, Crabgrass", "value": 40, "unit": "%"}, {"measurement": "Crabgrass plant response rating", "setting": "[4]; [15]", "value": 40}, {"measurement": "Plant response rating, Crabgrass", "setting": "[4]; [16]", "value": 70}, {"measurement": "Foxtail, Giant plant response rating", "setting": "[5]; [15]", "value": 50}, {"measurement": "Plant response rating, Foxtail, Giant", "setting": "[5]; [16]", "value": 10}, {"measurement": "pest or weed control at 62 g/ha", "setting": "[5]; post-emergence, Postemergence, scale 0 to 100 (0 no effect, 100 complete control), read-out: Foxtail, Giant plant response rating", "value": 20, "unit": "%"}, {"measurement": "pest or weed control at 62 g/ha", "setting": "[5]; pre-emergence, Preemergence, scale 0 to 100, 0 no effect, 100 complete control, read-out: Plant response rating, Foxtail, Giant", "value": 0, "unit": "%"}, {"measurement": "pest or weed control at 62 g/ha", "setting": "[6]; post-emergence, Postemergence, scale 0 to 100 (0 no effect, 100 complete control), read-out: Lambsquarters plant response rating", "value": 80, "unit": "%"}, {"measurement": "pest or weed control at 62 g/ha", "setting": "[6]; pre-emergence, Preemergence, scale 0 to 100, 0 no effect, 100 complete control, read-out: Plant response rating, Lambsquarters", "value": 70, "unit": "%"}, {"measurement": "Lambsquarters plant response rating", "setting": "[6]; [15]", "value": 90}, {"measurement": "Plant response rating, Lambsquarters", "setting": "[6]; [16]", "value": 80}, {"measurement": "pest or weed control at 62 g/ha", "setting": "[7]; post-emergence, Postemergence, scale 0 to 100 (0 no effect, 100 complete control), read-out: Morningglory plant response rating", "value": 90, "unit": "%"}, {"measurement": "pest or weed control at 62 g/ha", "setting": "[7]; pre-emergence, Preemergence, scale 0 to 100, 0 no effect, 100 complete control, read-out: Plant response rating, Morningglory", "value": 50, "unit": "%"}, {"measurement": "Morningglory plant response rating", "setting": "[7]; [15]", "value": 90}, {"measurement": "Plant response rating, Morningglory", "setting": "[7]; [16]", "value": 60}, {"measurement": "pest or weed control at 62 g/ha", "setting": "[8]; post-emergence, Postemergence, scale 0 to 100 (0 no effect, 100 complete control), read-out: Pigweed plant response rating", "value": 70, "unit": "%"}, {"measurement": "pest or weed control at 62 g/ha", "setting": "[8]; pre-emergence, Preemergence, scale 0 to 100, 0 no effect, 100 complete control, read-out: Plant response rating, Pigweed", "value": 70, "unit": "%"}, {"measurement": "Pigweed plant response rating", "setting": "[8]; [15]", "value": 90}, {"measurement": "Plant response rating, Pigweed", "setting": "[8]; [16]", "value": 90}, {"measurement": "pest or weed control at 62 g/ha", "setting": "[9]; post-emergence, Postemergence, scale 0 to 100 (0 no effect, 100 complete control), read-out: Velvetleaf plant response rating", "value": 60, "unit": "%"}, {"measurement": "pest or weed control at 62 g/ha", "setting": "[9]; pre-emergence, Preemergence, scale 0 to 100, 0 no effect, 100 complete control, read-out: Plant response rating, Velvetleaf", "value": 80, "unit": "%"}, {"measurement": "Velvetleaf plant response rating", "setting": "[9]; [15]", "value": 80}, {"measurement": "Plant response rating, Velvetleaf", "setting": "[9]; [16]", "value": 90}, {"measurement": "Wheat plant response rating", "setting": "[10]; Postemergence, 125 g ai/ha", "value": 50}, {"measurement": "Plant response rating, Wheat", "setting": "[10]; Preemergence, 125 g ai/ha", "value": 60}, {"measurement": "plant injury at 62 g/ha", "setting": "[10]; post-emergence, Postemergence, read-out: Wheat plant response rating", "value": 30, "unit": "%"}, {"measurement": "plant injury at 62 g/ha", "setting": "[10]; pre-emergence, Preemergence, read-out: Plant response rating, Wheat", "value": 10, "unit": "%"}, {"measurement": "Blackgrass plant response rating", "setting": "[11]; 125 g ai/ha", "value": 40}, {"measurement": "pest or weed control at 62 g/ha", "setting": "[11]; Alopecurus myosuroides, post-emergence, 62 g ai/ha, read-out: Blackgrass plant response rating", "value": 30, "unit": "%"}, {"measurement": "Oat, Wild plant response rating", "setting": "wild oat (Avena fatua); 125 g ai/ha", "value": 50}, {"measurement": "pest or weed control at 62 g/ha", "setting": "wild oat (Avena fatua); Avena fatua, post-emergence, 62 g ai/ha, read-out: Oat, Wild plant response rating", "value": 40, "unit": "%"}, {"measurement": "pest or weed control at 125 g/ha", "setting": "[12]; 125 g ai/ha", "value": 0, "unit": "%"}, {"measurement": "pest or weed control at 500 g/ha", "setting": "[12]; 500 g ai/ha", "value": 0, "unit": "%"}, {"measurement": "pest or weed control at 125 g/ha", "setting": "[13]; 125 g ai/ha", "value": 0, "unit": "%"}, {"measurement": "pest or weed control at 500 g/ha", "setting": "[13]; 500 g ai/ha", "value": 0, "unit": "%"}, {"measurement": "plant injury at 125 g/ha", "setting": "rice (Oryza sativa); 125 g ai/ha", "value": 0, "unit": "%"}, {"measurement": "plant injury at 500 g/ha", "setting": "rice (Oryza sativa); 500 g ai/ha", "value": 0, "unit": "%"}, {"measurement": "pest or weed control at 125 g/ha", "setting": "[14]; 125 g ai/ha", "value": 0, "unit": "%"}, {"measurement": "pest or weed control at 500 g/ha", "setting": "[14]; 500 g ai/ha", "value": 0, "unit": "%"}]}
